Results on 9 molecules are retold here after ChEMBL document CHEMBL4373723 (J Med Chem, 2019).

In experiment [1] the target is T1, Frizzled-7 (Homo sapiens, UniProt O75084). The experiment in a line: biochemical. In kind it is cell-based, CHO. The settings on record: read-out: Kd.
Experiment [2] concerns the target T1, Frizzled-7. In kind it is cell-based. The settings on record: cho.
The target in experiment [3] is T1, Frizzled-7. The settings on record: CHO.
Description: Binding affinity to recombinant human Frizzled-7 (Gln33 to Leu185 residues)/human IgG1 chimeric protein expressed in CHO cells assessed as association rate constant by SPR assay

Bridge positions count the residues as written; N and C are the ends. Square brackets hold non-standard residues; d marks the D form. Peptide text beside a SMILES is read from it. I, II: the chains in the order shown. Ala(cPent) = N[C@@H](CC1CCCC1)C(=O)O; Nva(3-Et) = CCC(CC)[C@H](N)C(=O)O; hPhe = N[C@@H](CCc1ccccc1)C(=O)O; tBuAla = CC(C)(C)C[C@H](N)C(=O)O; Cha = N[C@@H](CC1CCCCC1)C(=O)O; Cba = N[C@@H](CC1CCC1)C(=O)O; hLeu = CC(C)CC[C@H](N)C(=O)O; Nle = CCCC[C@H](N)C(=O)O

Consider `CSCC[C@H](NC(=O)[C@@H](NC(=O)[C@H](Cc1cnc[nH]1)NC(=O)[C@H](CSSC[C@H](NC(=O)[C@H](Cc1c[nH]c2ccccc12)NC(=O)[C@H](Cc1ccccc1)NC(=O)[C@H](CCC(=O)O)NC(=O)[C@H](CC1CCCC1)NC(=O)[C@H](CC(=O)O)NC(=O)[C@H](CC(=O)O)NC(=O)[C@H](CO)NC(C)=O)C(=O)N[C@@H](Cc1cnc[nH]1)C(=O)N[C@H](C(=O)N[C@@H](CCSC)C(=O)N[C@@H](Cc1ccc(O)cc1)C(N)=O)C(C)C)NC(=O)[C@H](Cc1c[nH]c2ccccc12)NC(=O)[C@H](Cc1ccccc1)NC(=O)[C@H](CCC(=O)O)NC(=O)[C@H](CC1CCCC1)NC(=O)[C@H](CC(=O)O)NC(=O)[C@H](CC(=O)O)NC(=O)[C@H](CO)NC(C)=O)C(C)C)C(=O)N[C@@H](Cc1ccc(O)cc1)C(N)=O` (I: Ac-SDD[Ala(cPent)]EFWCHVMY-NH2 / II: Ac-SDD[Ala(cPent)]EFWCHVMY-NH2; disulfide I:8-II:8), for which the Kd in experiment [1] was determined as 2.1 nM; in experiment [2], 9.9 ×10⁻³ /s. Also, in experiment [3], the Ka amounted to 46.5 ×10⁵ /M/s.

On to `CSCC[C@H](NC(=O)[C@@H](NC(=O)[C@H](Cc1cnc[nH]1)NC(=O)[C@H](CSSC[C@H](NC(=O)[C@H](Cc1c[nH]c2ccccc12)NC(=O)[C@H](Cc1ccccc1)NC(=O)[C@H](CCC(=O)O)NC(=O)[C@H](CC1CCC1)NC(=O)[C@H](CC(=O)O)NC(=O)[C@H](CC(=O)O)NC(=O)[C@H](CO)NC(C)=O)C(=O)N[C@@H](Cc1cnc[nH]1)C(=O)N[C@H](C(=O)N[C@@H](CCSC)C(=O)N[C@@H](Cc1ccc(O)cc1)C(N)=O)C(C)C)NC(=O)[C@H](Cc1c[nH]c2ccccc12)NC(=O)[C@H](Cc1ccccc1)NC(=O)[C@H](CCC(=O)O)NC(=O)[C@H](CC1CCC1)NC(=O)[C@H](CC(=O)O)NC(=O)[C@H](CC(=O)O)NC(=O)[C@H](CO)NC(C)=O)C(C)C)C(=O)N[C@@H](Cc1ccc(O)cc1)C(N)=O` (I: Ac-SDD[Cba]EFWCHVMY-NH2 / II: Ac-SDD[Cba]EFWCHVMY-NH2; disulfide I:8-II:8), for which the results for the Kd in experiment [1] and in experiment [2] were 20.3 nM and 9.7 ×10⁻³ /s, respectively. In experiment [3], the Ka came out at 4.6 ×10⁵ /M/s.

On to `CSCC[C@H](NC(=O)[C@@H](NC(=O)[C@H](Cc1cnc[nH]1)NC(=O)[C@H](CSSC[C@H](NC(=O)[C@H](Cc1c[nH]c2ccccc12)NC(=O)[C@H](Cc1ccccc1)NC(=O)[C@H](CCC(=O)O)NC(=O)[C@H](CC1CCCCC1)NC(=O)[C@H](CC(=O)O)NC(=O)[C@H](CC(=O)O)NC(=O)[C@H](CO)NC(C)=O)C(=O)N[C@@H](Cc1cnc[nH]1)C(=O)N[C@H](C(=O)N[C@@H](CCSC)C(=O)N[C@@H](Cc1ccc(O)cc1)C(N)=O)C(C)C)NC(=O)[C@H](Cc1c[nH]c2ccccc12)NC(=O)[C@H](Cc1ccccc1)NC(=O)[C@H](CCC(=O)O)NC(=O)[C@H](CC1CCCCC1)NC(=O)[C@H](CC(=O)O)NC(=O)[C@H](CC(=O)O)NC(=O)[C@H](CO)NC(C)=O)C(C)C)C(=O)N[C@@H](Cc1ccc(O)cc1)C(N)=O` (I: Ac-SDD[Cha]EFWCHVMY-NH2 / II: Ac-SDD[Cha]EFWCHVMY-NH2; disulfide I:8-II:8), for which the Kd in experiment [1] was found to be 13.7 nM; in experiment [2] it was 75.1 ×10⁻³ /s. Also, the Ka in experiment [3] amounted to 56.7 ×10⁵ /M/s.

Regarding `CCCC[C@H](NC(=O)[C@H](CC(=O)O)NC(=O)[C@H](CC(=O)O)NC(=O)[C@H](CO)NC(C)=O)C(=O)N[C@@H](CCC(=O)O)C(=O)N[C@@H](Cc1ccccc1)C(=O)N[C@@H](Cc1c[nH]c2ccccc12)C(=O)N[C@@H](CSSC[C@H](NC(=O)[C@H](Cc1c[nH]c2ccccc12)NC(=O)[C@H](Cc1ccccc1)NC(=O)[C@H](CCC(=O)O)NC(=O)[C@H](CCCC)NC(=O)[C@H](CC(=O)O)NC(=O)[C@H](CC(=O)O)NC(=O)[C@H](CO)NC(C)=O)C(=O)N[C@@H](Cc1cnc[nH]1)C(=O)N[C@H](C(=O)N[C@@H](CCSC)C(=O)N[C@@H](Cc1ccc(O)cc1)C(N)=O)C(C)C)C(=O)N[C@@H](Cc1cnc[nH]1)C(=O)N[C@H](C(=O)N[C@@H](CCSC)C(=O)N[C@@H](Cc1ccc(O)cc1)C(N)=O)C(C)C` (I: Ac-SDD[Nle]EFWCHVMY-NH2 / II: Ac-SDD[Nle]EFWCHVMY-NH2; disulfide I:8-II:8), the Kd was found to be 5.4 nM in experiment [1] and 23.1 ×10⁻³ /s in experiment [2]. For the same molecule, the Ka in experiment [3] came to 42.8 ×10⁵ /M/s.

Regarding `CCC(CC)[C@H](NC(=O)[C@H](CC(=O)O)NC(=O)[C@H](CC(=O)O)NC(=O)[C@H](CO)NC(C)=O)C(=O)N[C@@H](CCC(=O)O)C(=O)N[C@@H](Cc1ccccc1)C(=O)N[C@@H](Cc1c[nH]c2ccccc12)C(=O)N[C@@H](CSSC[C@H](NC(=O)[C@H](Cc1c[nH]c2ccccc12)NC(=O)[C@H](Cc1ccccc1)NC(=O)[C@H](CCC(=O)O)NC(=O)[C@@H](NC(=O)[C@H](CC(=O)O)NC(=O)[C@H](CC(=O)O)NC(=O)[C@H](CO)NC(C)=O)C(CC)CC)C(=O)N[C@@H](Cc1cnc[nH]1)C(=O)N[C@H](C(=O)N[C@@H](CCSC)C(=O)N[C@@H](Cc1ccc(O)cc1)C(N)=O)C(C)C)C(=O)N[C@@H](Cc1cnc[nH]1)C(=O)N[C@H](C(=O)N[C@@H](CCSC)C(=O)N[C@@H](Cc1ccc(O)cc1)C(N)=O)C(C)C` (I: Ac-SDD[Nva(3-Et)]EFWCHVMY-NH2 / II: Ac-SDD[Nva(3-Et)]EFWCHVMY-NH2; disulfide I:8-II:8), the Kd in experiment [1] came to 3.9 nM; in experiment [2] it was 29.2 ×10⁻³ /s. In experiment [3], this molecule displayed a Ka of 73.6 ×10⁵ /M/s.

With `CSCC[C@H](NC(=O)[C@@H](NC(=O)[C@H](Cc1cnc[nH]1)NC(=O)[C@H](CSSC[C@H](NC(=O)[C@H](Cc1c[nH]c2ccccc12)NC(=O)[C@H](Cc1ccccc1)NC(=O)[C@H](CCC(=O)O)NC(=O)[C@H](CCC(C)C)NC(=O)[C@H](CC(=O)O)NC(=O)[C@H](CC(=O)O)NC(=O)[C@H](CO)NC(C)=O)C(=O)N[C@@H](Cc1cnc[nH]1)C(=O)N[C@H](C(=O)N[C@@H](CCSC)C(=O)N[C@@H](Cc1ccc(O)cc1)C(N)=O)C(C)C)NC(=O)[C@H](Cc1c[nH]c2ccccc12)NC(=O)[C@H](Cc1ccccc1)NC(=O)[C@H](CCC(=O)O)NC(=O)[C@H](CCC(C)C)NC(=O)[C@H](CC(=O)O)NC(=O)[C@H](CC(=O)O)NC(=O)[C@H](CO)NC(C)=O)C(C)C)C(=O)N[C@@H](Cc1ccc(O)cc1)C(N)=O` (I: Ac-SDD[hLeu]EFWCHVMY-NH2 / II: Ac-SDD[hLeu]EFWCHVMY-NH2; disulfide I:8-II:8), the Kd in experiment [1] is 115 nM; in experiment [2] it was 123.5 ×10⁻³ /s. In experiment [3], this molecule had a Ka of 10.9 ×10⁵ /M/s.

With `CSCC[C@H](NC(=O)[C@@H](NC(=O)[C@H](Cc1cnc[nH]1)NC(=O)[C@H](CSSC[C@H](NC(=O)[C@H](Cc1c[nH]c2ccccc12)NC(=O)[C@H](Cc1ccccc1)NC(=O)[C@H](CCC(=O)O)NC(=O)[C@H](CCc1ccccc1)NC(=O)[C@H](CC(=O)O)NC(=O)[C@H](CC(=O)O)NC(=O)[C@H](CO)NC(C)=O)C(=O)N[C@@H](Cc1cnc[nH]1)C(=O)N[C@H](C(=O)N[C@@H](CCSC)C(=O)N[C@@H](Cc1ccc(O)cc1)C(N)=O)C(C)C)NC(=O)[C@H](Cc1c[nH]c2ccccc12)NC(=O)[C@H](Cc1ccccc1)NC(=O)[C@H](CCC(=O)O)NC(=O)[C@H](CCc1ccccc1)NC(=O)[C@H](CC(=O)O)NC(=O)[C@H](CC(=O)O)NC(=O)[C@H](CO)NC(C)=O)C(C)C)C(=O)N[C@@H](Cc1ccc(O)cc1)C(N)=O` (I: Ac-SDD[hPhe]EFWCHVMY-NH2 / II: Ac-SDD[hPhe]EFWCHVMY-NH2; disulfide I:8-II:8), the Kd in experiment [1] came out at 1.4 nM; in experiment [2] it was 9.1 ×10⁻³ /s. This molecule gave a Ka in experiment [3] of 69.6 ×10⁵ /M/s.

For the molecule `CSCC[C@H](NC(=O)[C@@H](NC(=O)[C@H](Cc1cnc[nH]1)NC(=O)[C@H](CSSC[C@H](NC(=O)[C@H](Cc1c[nH]c2ccccc12)NC(=O)[C@H](Cc1ccccc1)NC(=O)[C@H](CCC(=O)O)NC(=O)[C@H](CC(C)(C)C)NC(=O)[C@H](CC(=O)O)NC(=O)[C@H](CC(=O)O)NC(=O)[C@H](CO)NC(C)=O)C(=O)N[C@@H](Cc1cnc[nH]1)C(=O)N[C@H](C(=O)N[C@@H](CCSC)C(=O)N[C@@H](Cc1ccc(O)cc1)C(N)=O)C(C)C)NC(=O)[C@H](Cc1c[nH]c2ccccc12)NC(=O)[C@H](Cc1ccccc1)NC(=O)[C@H](CCC(=O)O)NC(=O)[C@H](CC(C)(C)C)NC(=O)[C@H](CC(=O)O)NC(=O)[C@H](CC(=O)O)NC(=O)[C@H](CO)NC(C)=O)C(C)C)C(=O)N[C@@H](Cc1ccc(O)cc1)C(N)=O` (I: Ac-SDD[tBuAla]EFWCHVMY-NH2 / II: Ac-SDD[tBuAla]EFWCHVMY-NH2; disulfide I:8-II:8), the Kd worked out at 0.22 nM in experiment [1] and 0.95 ×10⁻³ /s in experiment [2]. Besides, the Ka in experiment [3] was 44 ×10⁵ /M/s.

Regarding `CSCC[C@H](NC(=O)[C@@H](NC(=O)[C@H](Cc1cnc[nH]1)NC(=O)[C@H](CSSC[C@H](NC(=O)[C@H](Cc1c[nH]c2ccccc12)NC(=O)[C@H](Cc1ccccc1)NC(=O)[C@H](CCC(=O)O)NC(=O)[C@H](CC(C)C)NC(=O)[C@H](CC(=O)O)NC(=O)[C@H](CC(=O)O)NC(=O)[C@@H](NC(C)=O)[C@@H](C)O)C(=O)N[C@@H](Cc1cnc[nH]1)C(=O)N[C@H](C(=O)N[C@@H](CCSC)C(=O)N[C@@H](Cc1ccc(O)cc1)C(N)=O)C(C)C)NC(=O)[C@H](Cc1c[nH]c2ccccc12)NC(=O)[C@H](Cc1ccccc1)NC(=O)[C@H](CCC(=O)O)NC(=O)[C@H](CC(C)C)NC(=O)[C@H](CC(=O)O)NC(=O)[C@H](CC(=O)O)NC(=O)[C@@H](NC(C)=O)[C@@H](C)O)C(C)C)C(=O)N[C@@H](Cc1ccc(O)cc1)C(N)=O` (I: Ac-TDDLEFWCHVMY-NH2 / II: Ac-TDDLEFWCHVMY-NH2; disulfide I:8-II:8), the Kd in experiment [1] was 0.14 nM; in experiment [2] it was 0.72 ×10⁻³ /s. This molecule also came in with a Ka in experiment [3] of 51.5 ×10⁵ /M/s.
